# System: Rhizoctonia solani (RHIZSO)
# Test: microbe, parasite or virus in culture
# Format: cell-based
# Details: Rhizoctonia solani, read-out: RHIZSO in vitro Growth Inhibition
row,SMILES,inhibition at 25 ppm [%]
1,CC(=O)Oc1cccnc1C(=O)N[C@H]1COC(=O)[C@H](Cc2ccccc2)[C@@H](OC(=O)C(C)C)[C@H](C)OC1=O [Compound 568],< 80
2,COc1ccnc(C(=O)NC2C[C@H](C)O[C@](C)(Cc3ccccc3)C2)c1O (some centres unmarked) [Compound 313],< 80
3,COc1ccnc(C(=O)N[C@@H](Cc2ccc(OCc3ccccc3)cc2)C(=O)OCc2ccccc2)c1O [Compound 339],< 80
4,CSc1nnc(C(=O)N[C@H]2COC(=O)[C@H](Cc3ccccc3)[C@@H](OC(=O)C(C)C)[C@H](C)OC2=O)c(O)n1 [Compound 547],< 80

# System: Erysiphe graminis—ERYSGT
# Test: Powdery Mildew of Wheat, in vivo whole plant, 24 Hour Protectant
# Details: Erysiphe; 100 ppm spray, 24 hour protectant, wheat; control of fungal infection vs untreated plants; read-out: ERYSGT in vivo 1 Day Protectant
row,SMILES,pest or weed control at 100 ppm [%]
1,COc1ccnc(C(=O)NC2C[C@H](C)O[C@](C)(Cc3ccccc3)C2)c1O (some centres unmarked) [Compound 313],25 to 74

# Same assay, conditions: Erysiphe; 100 ppm spray, wheat, 24 hour protectant; control of fungal infection vs untreated plants; read-out: ERYSGT in vivo 1 Day Protectant
row,SMILES,pest or weed control at 100 ppm [%]
1,COc1ccnc(C(=O)N[C@@H](Cc2ccc(OCc3ccccc3)cc2)C(=O)OCc2ccccc2)c1O [Compound 339],< 25

# Same assay, conditions: Erysiphe; wheat plants sprayed at 100 ppm, inoculated after 24 hours; control of fungal infection vs untreated plants; read-out: ERYSGT in vivo 1 Day Protectant
row,SMILES,pest or weed control at 100 ppm [%]
1,CC(=O)Oc1cccnc1C(=O)N[C@H]1COC(=O)[C@H](Cc2ccccc2)[C@@H](OC(=O)C(C)C)[C@H](C)OC1=O [Compound 568],< 25
2,CSc1nnc(C(=O)N[C@H]2COC(=O)[C@H](Cc3ccccc3)[C@@H](OC(=O)C(C)C)[C@H](C)OC2=O)c(O)n1 [Compound 547],< 25

# System: Puccinia recondita—PUCCRT
# Test: Brown Rust of Wheat, in vivo whole plant, 24 Hour Protectant
# Details: 100 ppm spray, wheat, 24 hour protectant; control of fungal infection vs untreated plants
row,SMILES,PUCCRT in vivo 1 Day Protectant
1,COc1ccnc(C(=O)N[C@@H](Cc2ccc(OCc3ccccc3)cc2)C(=O)OCc2ccccc2)c1O [Compound 339],+ +

# Same assay, conditions: Puccinia; 100 ppm spray, 24 hour protectant, wheat; control of fungal infection vs untreated plants; read-out: PUCCRT in vivo 1 Day Protectant
row,SMILES,pest or weed control at 100 ppm [%]
1,COc1ccnc(C(=O)NC2C[C@H](C)O[C@](C)(Cc3ccccc3)C2)c1O (some centres unmarked) [Compound 313],25 to 74

# Same assay, conditions: Puccinia; wheat plants sprayed at 100 ppm, inoculated after 24 hours; control of fungal infection vs untreated plants; read-out: PUCCRT in vivo 1 Day Protectant
row,SMILES,pest or weed control at 100 ppm [%]
1,CSc1nnc(C(=O)N[C@H]2COC(=O)[C@H](Cc3ccccc3)[C@@H](OC(=O)C(C)C)[C@H](C)OC2=O)c(O)n1 [Compound 547],25 to 74

# Same assay, conditions: wheat plants sprayed at 100 ppm, inoculated after 24 hours; control of fungal infection vs untreated plants
row,SMILES,PUCCRT in vivo 1 Day Protectant
1,CC(=O)Oc1cccnc1C(=O)N[C@H]1COC(=O)[C@H](Cc2ccccc2)[C@@H](OC(=O)C(C)C)[C@H](C)OC1=O [Compound 568],+ +

# System: Mycosphaerella graminicola (Septoria tritici—SEPTTR)
# Test: In vitro fungal growth inhibition, Mycosphaerella graminicola (SEPTTR)
# Format: cell-based
# Details: Zymoseptoria tritici; 25 ppm in growth medium; read-out: SEPTTR in vitro Growth Inhibition
row,SMILES,inhibition at 25 ppm [%]
1,COc1ccnc(C(=O)NC2C[C@H](C)O[C@](C)(Cc3ccccc3)C2)c1O (some centres unmarked) [Compound 313],< 80
2,COc1ccnc(C(=O)N[C@@H](Cc2ccc(OCc3ccccc3)cc2)C(=O)OCc2ccccc2)c1O [Compound 339],< 80

# Same assay, conditions: Zymoseptoria tritici; 25 ppm in the growth medium; read-out: SEPTTR in vitro Growth Inhibition
row,SMILES,inhibition at 25 ppm [%]
1,CC(=O)Oc1cccnc1C(=O)N[C@H]1COC(=O)[C@H](Cc2ccccc2)[C@@H](OC(=O)C(C)C)[C@H](C)OC1=O [Compound 568],> 80
2,CSc1nnc(C(=O)N[C@H]2COC(=O)[C@H](Cc3ccccc3)[C@@H](OC(=O)C(C)C)[C@H](C)OC2=O)c(O)n1 [Compound 547],< 80

# System: Stagonospora nodorum (Leptosphaeria nodorum—LEPTNO)
# Test: In vitro fungal growth inhibition, Stagonospora nodorum (LEPTNO)
# Format: cell-based
# Details: Leptosphaeria; 25 ppm in growth medium; read-out: LEPTNO in vitro Growth Inhibition
row,SMILES,inhibition at 25 ppm [%]
1,COc1ccnc(C(=O)NC2C[C@H](C)O[C@](C)(Cc3ccccc3)C2)c1O (some centres unmarked) [Compound 313],< 80
2,COc1ccnc(C(=O)N[C@@H](Cc2ccc(OCc3ccccc3)cc2)C(=O)OCc2ccccc2)c1O [Compound 339],< 80

# Same assay, conditions: Leptosphaeria; 25 ppm in the growth medium; read-out: LEPTNO in vitro Growth Inhibition
row,SMILES,inhibition at 25 ppm [%]
1,CC(=O)Oc1cccnc1C(=O)N[C@H]1COC(=O)[C@H](Cc2ccccc2)[C@@H](OC(=O)C(C)C)[C@H](C)OC1=O [Compound 568],> 80
2,CSc1nnc(C(=O)N[C@H]2COC(=O)[C@H](Cc3ccccc3)[C@@H](OC(=O)C(C)C)[C@H](C)OC2=O)c(O)n1 [Compound 547],< 80

# System: Phytophthora infestans—PHYTIN
# Test: whole plant or invertebrate
# Format: in vivo
# Details: Phytophthora, in Solanum lycopersicum, 24 h, read-out: PHYTIN in vivo 1 Day Protectant
row,SMILES,pest or weed control at 100 ppm [%]
1,CC(=O)Oc1cccnc1C(=O)N[C@H]1COC(=O)[C@H](Cc2ccccc2)[C@@H](OC(=O)C(C)C)[C@H](C)OC1=O [Compound 568],< 25
2,COc1ccnc(C(=O)NC2C[C@H](C)O[C@](C)(Cc3ccccc3)C2)c1O (some centres unmarked) [Compound 313],< 25
3,COc1ccnc(C(=O)N[C@@H](Cc2ccc(OCc3ccccc3)cc2)C(=O)OCc2ccccc2)c1O [Compound 339],< 25
4,CSc1nnc(C(=O)N[C@H]2COC(=O)[C@H](Cc3ccccc3)[C@@H](OC(=O)C(C)C)[C@H](C)OC2=O)c(O)n1 [Compound 547],25 to 74

# System: Ustilago maydis (USTIMA)
# Test: microbe, parasite or virus in culture
# Format: cell-based
# Details: Mycosarcoma maydis, read-out: USTIMA in vitro Growth Inhibition
row,SMILES,inhibition at 25 ppm [%]
1,CC(=O)Oc1cccnc1C(=O)N[C@H]1COC(=O)[C@H](Cc2ccccc2)[C@@H](OC(=O)C(C)C)[C@H](C)OC1=O [Compound 568],< 80
2,COc1ccnc(C(=O)NC2C[C@H](C)O[C@](C)(Cc3ccccc3)C2)c1O (some centres unmarked) [Compound 313],< 80
3,COc1ccnc(C(=O)N[C@@H](Cc2ccc(OCc3ccccc3)cc2)C(=O)OCc2ccccc2)c1O [Compound 339],< 80
4,CSc1nnc(C(=O)N[C@H]2COC(=O)[C@H](Cc3ccccc3)[C@@H](OC(=O)C(C)C)[C@H](C)OC2=O)c(O)n1 [Compound 547],< 80

# System: Leptosphaeria nodorum—LEPTNO
# Test: Glume Blotch of Wheat, in vivo whole plant, 24 Hour Protectant
# Details: 100 ppm spray, wheat, 24 hour protectant; control of fungal infection vs untreated plants
row,SMILES,LEPTNO in vivo 1 Day Protectant
1,COc1ccnc(C(=O)N[C@@H](Cc2ccc(OCc3ccccc3)cc2)C(=O)OCc2ccccc2)c1O [Compound 339],+ +

# Same assay, conditions: Leptosphaeria; 100 ppm spray, 24 hour protectant, wheat; control of fungal infection vs untreated plants; read-out: LEPTNO in vivo 1 Day Protectant
row,SMILES,pest or weed control at 100 ppm [%]
1,COc1ccnc(C(=O)NC2C[C@H](C)O[C@](C)(Cc3ccccc3)C2)c1O (some centres unmarked) [Compound 313],25 to 74

# Same assay, conditions: Leptosphaeria; wheat plants sprayed at 100 ppm, inoculated after 24 hours; control of fungal infection vs untreated plants; read-out: LEPTNO in vivo 1 Day Protectant
row,SMILES,pest or weed control at 100 ppm [%]
1,CSc1nnc(C(=O)N[C@H]2COC(=O)[C@H](Cc3ccccc3)[C@@H](OC(=O)C(C)C)[C@H](C)OC2=O)c(O)n1 [Compound 547],< 25

# Same assay, conditions: wheat plants sprayed at 100 ppm, inoculated after 24 hours; control of fungal infection vs untreated plants
row,SMILES,LEPTNO in vivo 1 Day Protectant
1,CC(=O)Oc1cccnc1C(=O)N[C@H]1COC(=O)[C@H](Cc2ccccc2)[C@@H](OC(=O)C(C)C)[C@H](C)OC1=O [Compound 568],+ +

# System: Phytophthora infestans (PHYTIN)
# Test: microbe, parasite or virus in culture
# Format: cell-based
# Details: Phytophthora infestans, read-out: PHYTIN in vitro Growth Inhibition
row,SMILES,inhibition at 25 ppm [%]
1,CC(=O)Oc1cccnc1C(=O)N[C@H]1COC(=O)[C@H](Cc2ccccc2)[C@@H](OC(=O)C(C)C)[C@H](C)OC1=O [Compound 568],< 80
2,COc1ccnc(C(=O)NC2C[C@H](C)O[C@](C)(Cc3ccccc3)C2)c1O (some centres unmarked) [Compound 313],< 80
3,COc1ccnc(C(=O)N[C@@H](Cc2ccc(OCc3ccccc3)cc2)C(=O)OCc2ccccc2)c1O [Compound 339],< 80
4,CSc1nnc(C(=O)N[C@H]2COC(=O)[C@H](Cc3ccccc3)[C@@H](OC(=O)C(C)C)[C@H](C)OC2=O)c(O)n1 [Compound 547],> 80

# System: Septoria tritici—SEPTTR
# Test: Leaf Blotch of Wheat, in vivo whole plant, 24 Hour Protectant
# Details: 100 ppm spray, wheat, 24 hour protectant; control of fungal infection vs untreated plants
row,SMILES,SEPTTR in vivo 1 Day Protectant
1,COc1ccnc(C(=O)N[C@@H](Cc2ccc(OCc3ccccc3)cc2)C(=O)OCc2ccccc2)c1O [Compound 339],+ +

# Same assay, conditions: Zymoseptoria tritici, 24 h, 100 ppm spray, 24 hour protectant, wheat; control of fungal infection vs untreated plants; read-out: SEPTTR in vivo 1 Day Protectant
row,SMILES,pest or weed control at 100 ppm [%]
1,COc1ccnc(C(=O)NC2C[C@H](C)O[C@](C)(Cc3ccccc3)C2)c1O (some centres unmarked) [Compound 313],25 to 74

# Same assay, conditions: Zymoseptoria tritici, 24 h, wheat plants sprayed at 100 ppm, inoculated after 24 hours; control of fungal infection vs untreated plants; read-out: SEPTTR in vivo 1 Day Protectant
row,SMILES,pest or weed control at 100 ppm [%]
1,CSc1nnc(C(=O)N[C@H]2COC(=O)[C@H](Cc3ccccc3)[C@@H](OC(=O)C(C)C)[C@H](C)OC2=O)c(O)n1 [Compound 547],25 to 74

# Same assay, conditions: wheat plants sprayed at 100 ppm, inoculated after 24 hours; control of fungal infection vs untreated plants
row,SMILES,SEPTTR in vivo 1 Day Protectant
1,CC(=O)Oc1cccnc1C(=O)N[C@H]1COC(=O)[C@H](Cc2ccccc2)[C@@H](OC(=O)C(C)C)[C@H](C)OC1=O [Compound 568],+ +

# System: Magnaporthe grisea (Pyricularia oryzae—PYRIOR)
# Test: microbe, parasite or virus in culture
# Format: cell-based
# Details: Pyricularia oryzae, read-out: PYRIOR in vitro Growth Inhibition
row,SMILES,inhibition at 25 ppm [%]
1,CC(=O)Oc1cccnc1C(=O)N[C@H]1COC(=O)[C@H](Cc2ccccc2)[C@@H](OC(=O)C(C)C)[C@H](C)OC1=O [Compound 568],< 80
2,COc1ccnc(C(=O)NC2C[C@H](C)O[C@](C)(Cc3ccccc3)C2)c1O (some centres unmarked) [Compound 313],< 80
3,COc1ccnc(C(=O)N[C@@H](Cc2ccc(OCc3ccccc3)cc2)C(=O)OCc2ccccc2)c1O [Compound 339],< 80
4,CSc1nnc(C(=O)N[C@H]2COC(=O)[C@H](Cc3ccccc3)[C@@H](OC(=O)C(C)C)[C@H](C)OC2=O)c(O)n1 [Compound 547],< 80

# Source: patent US6706740B2, “Fungicidal heterocyclic aromatic amides and their compositions, methods of use and preparation” (Dow AgroSciences LLC, priority 1999, dated 2004)
